Results as given in patent US8575145B2, “Triazolopyridine compounds as PIM kinase inhibitors” (Array BioPharma Inc., priority 2008, dated 2013).
Counter-ions that a name gives are not always drawn.

How the values were obtained:
recombinant rat PIM-3 = recombinant rat PIM-3 (Rattus norvegicus (Rat), UniProt O70444); assay: PIM-3 Enzyme Assay; details: read-out: PIM-3 IC50; 30 μM ATP, 0.5 nM PIM-3
Procedure: The amount of radiolabeled product is then measured by liquid scintillation counting. The final buffer conditions were as follows: 20 mM K^+MOPS, pH 7.4, 10 mM MgCl2, 0.005% Tween-20, 1 mM DTT. […] Incubations were carried out for 60 min at 22° C. and quenched with 75 μL of 200 mM H3PO4, filtered through a Whatman P81 plate and washed (1×200 μL and 5×100 μL ) with 200 mM H3PO4. Liquid scintillation cocktail (50 μL ) was then added per well, and the plate was counted for 30 s/well using a TopCount NXT.
One-μL aliquots of these were then transferred to the assay mixtures above to give a final concentration of DMSO of 2%. […] For each plate, percent of control (POC) values were calculated for each well. IC50's were estimated from the POC's using a standard 4-parameter logistic model. The IC50 is defined as the concentration of inhibitor at which the POC equals 50 for the fitted curve.

[1] = target: GST-tagged recombinant full-length human PIM-2 (Homo sapiens (Human), UniProt Q9P1W9); assay: PIM-2 Enzyme Assay; details: read-out: PIM-2 IC50; 4 μM ATP, […] PIM-2
PIM-1 = PIM-1 (Homo sapiens (Human), UniProt P11309); assay: PIM-1 Enzyme Assay; format: biochemical; details: 35 μM ATP, 0.25 nM PIM-1
In short: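 Radiometric kinase assay in 20 mM K+MOPS pH 7.4, 10 mM MgCl2, 0.005% Tween-20, 1 mM DTT, 2% DMSO final; 60 min at 22° C, stopped with H3PO4, product captured on P81 filter and counted by scintillation. IC50 from 4-parameter logistic fit of percent of control.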

Chain of PIM-1 (P11309 whole entry, species assumed): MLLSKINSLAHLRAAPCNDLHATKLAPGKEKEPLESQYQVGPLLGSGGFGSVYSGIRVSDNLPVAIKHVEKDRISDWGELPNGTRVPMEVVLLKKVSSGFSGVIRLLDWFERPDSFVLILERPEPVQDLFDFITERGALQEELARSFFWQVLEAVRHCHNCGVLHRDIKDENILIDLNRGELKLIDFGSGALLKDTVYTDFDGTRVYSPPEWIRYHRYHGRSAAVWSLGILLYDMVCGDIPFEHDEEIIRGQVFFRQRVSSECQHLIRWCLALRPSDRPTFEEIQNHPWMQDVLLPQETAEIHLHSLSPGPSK
Chain of GST-tagged recombinant full-length human PIM-2 (Q9P1W9 whole entry): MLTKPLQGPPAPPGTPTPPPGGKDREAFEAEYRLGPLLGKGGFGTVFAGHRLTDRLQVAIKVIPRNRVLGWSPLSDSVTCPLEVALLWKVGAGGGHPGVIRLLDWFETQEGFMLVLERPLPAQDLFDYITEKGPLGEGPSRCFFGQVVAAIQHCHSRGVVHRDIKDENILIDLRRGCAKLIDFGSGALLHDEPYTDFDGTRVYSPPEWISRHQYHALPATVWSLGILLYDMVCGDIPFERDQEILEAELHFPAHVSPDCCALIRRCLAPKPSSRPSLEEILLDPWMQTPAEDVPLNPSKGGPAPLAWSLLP

Structure (SMILES) | IC50 (recombinant rat PIM-3) [µM] | IC50 [1] [µM] | IC50 (PIM-1) [µM]
NCCCOc1cccc2ccc(-c3nnc4ccccn34)nc12 [Example 10, 3-(2-([1,2,4]Triazolo[4,3-a]pyridin-3-yl)quinolin-8-yloxy)propan-1-amine] | 0.013 | 0.514 | –
COC(=O)[C@@H]1C[C@@H](Oc2cccc3ccc(-c4nnc5ccccn45)nc23)CCN1 [Example 13, (2S,4S)-Methyl 4-(2-([1,2,4]triazolo[4,3-a]pyridin-3-yl)quinolin-8-yloxy)piperidine-2-carboxylate] | 0.009 | 0.189 | –
CC(C)(CO)COc1cccc2ccc(-c3nnc4ccccn34)nc12 [Example 24, 3-(2-([1,2,4]triazolo[4,3-a]pyridin-3-yl)quinolin-8-yloxy)-2,2-dimethylpropan-1-ol] | 0.004 | 0.077 | –
CCNCC(C)(C)COc1cccc2ccc(-c3nnc4ccccn34)nc12 [Example 27, 3-(2-([1,2,4]triazolo[4,3-a]pyridin-3-yl)quinolin-8-yloxy)-N-ethyl-2,2-dimethylpropan-1-amine di-trifluoroacetate] | 0.013 | 0.323 | –
CNCC(C)(C)COc1cccc2ccc(-c3nnc4ccccn34)nc12 [Example 28, 3-(2-([1,2,4]triazolo[4,3-a]pyridin-3-yl)quinolin-8-yloxy)-N,2,2-trimethylpropan-1-amine] | 0.004 | 0.143 | –
CC(C)(COc1cccc2ccc(-c3nnc4ccccn34)nc12)[C@@H](O)CO [Example 113, (R)-4-(2-([1,2,4]triazolo[4,3-a]pyridin-3-yl)quinolin-8-yloxy)-3,3-dimethylbutane-1,2-diol] | 0.0088 | 0.167 | –
Cc1ccn2c(-c3ccc4cccc(OCC(C)(C)CN)c4n3)nnc2c1 [Example 123, 2,2-dimethyl-3-(2-(7-methyl-[1,2,4]triazolo[4,3-a]pyridin-3-yl)quinolin-8-yloxy)propan-1-amine trihydrochloride] | – | 0.156 | 0.0009
F[C@@H]1CNCC[C@@H]1Oc1cccc2ccc(-c3nnc4cc(Cl)ccn34)nc12 [Example 124, 2-(7-chloro-[1,2,4]triazolo[4,3-a]pyridin-3-yl)-8-((3R,4S)-3-fluoropiperidin-4-yloxy)quinoline] | – | 1 | 0.031
COC1(COc2cccc3ccc(-c4nnc5cc(C)ccn45)nc23)CCNCC1 [Example 125, 8((4-methoxypiperidin-4-yl)methoxy)-2-(7-methyl-[1,2,4]triazolo[4,3-a]pyridin-3-yl)quinoline di-trifluoroacetate] | – | 0.429 | 0.001
c1cc(OCC2CNCCO2)c2nc(-c3nnc4ccccn34)ccc2c1 (stereo not drawn) [Example 126] | – | 0.354 | 0.0142
NCC1(COc2cccc3ccc(-c4nnc5ccccn45)nc23)CCCC1 [Example 129, (1-((2-([1,2,4]triazolo[4,3-a]pyridin-3-yl)quinolin-8-yloxy)methyl)cyclopentyl)methanamine] | – | 1 | 0.0049
CCC(CO)COc1cccc2ccc(-c3nnc4ccccn34)nc12 (stereo not drawn) [Example 130] | – | 1 | 0.0058
FC1(COc2cccc3ccc(-c4nnc5ccccn45)nc23)CCCNC1 (stereo not drawn) [Example 133, 2-([1,2,4]triazolo[4,3-a]pyridin-3-yl)-8-((3-fluoropiperidin-3-yl)methoxy)quinoline] | – | 0.142 | 0.0016
CC(C)(CNC(=O)CF)COc1cccc2ccc(-c3nnc4ccccn34)nc12 [Example 134, N-(3-(2-([1,2,4]triazolo[4,3-a]pyridin-3-yl)quinolin-8-yloxy)-2,2-dimethylpropyl)-2-fluoroacetamide] | – | 0.952 | 0.0101
CC(C)(CNCC(F)F)COc1cccc2ccc(-c3nnc4ccccn34)nc12 [Example 135, 3-(2-([1,2,4]triazolo[4,3-a]pyridin-3-yl)quinolin-8-yloxy)-N-(2,2-difluoroethyl)-2,2-dimethylpropan-1-amine hydrochloride] | – | 0.506 | 0.0126
